Test results: US7820623B2 (priority 2006, dated 2010)
Where two headings read alike, the source gives them in different places. Bridge positions count the residues as written; N and C are the ends. Square brackets hold non-standard residues; d marks the D form. Ends that are not written are not given here. Peptide text beside a SMILES is read from it. 1Nal = N[C@@H](Cc1cccc2ccccc12)C(=O)O

What was measured:
[1] = tested on: thapsigargin-induced IFN-g production in human whole blood; type: cell-based
[2] = tested on: thapsigargin-induced IL-2 production in human whole blood
[3] = read-out: Analogue Activity (IC50) WB/IFNg
[4] = read-out: Analogue Activity (IC50) WB/IL-2

Molecule | IC50 [1, 3] [nM] | IC50 [2, 4] [nM] | further results
CC[C@H](C)[C@@H]1NC(=O)[C@H](CCCCN)NC(=O)[C@@H](NC(=O)[C@H](CCCCN)NC(=O)[C@@H](NC(=O)[C@H](CC(N)=O)NC(=O)[C@@H](NC(=O)[C@@H](NC(=O)[C@@H](NC(=O)CN)C(C)C)[C@@H](C)CC)[C@@H](C)CC)C(C)C)CSSC[C@@H]2NC(=O)[C@H](CCCCN)NC(=O)CNC(=O)[C@H](CCCNC(=N)N)NC(=O)[C@H](CCCNC(=N)N)NC(=O)[C@H](CCSC)NC(=O)CNC(=O)[C@H](C)NC(=O)[C@H](CCCCN)NC(=O)[C@H](CCCCN)NC(=O)[C@@H]3CSSC[C@@H](C(=O)N[C@H](C(=O)N4CCC[C@H]4C(=O)N[C@@H](CCCCN)C(=O)O)[C@@H](C)O)NC(=O)[C@H](Cc4c[nH]cn4)NC(=O)[C@H](CSSC[C@H](NC(=O)[C@H](CCC(N)=O)NC(=O)[C@H](CCCNC(=N)N)NC(=O)[C@H](CO)NC1=O)C(=O)N[C@@H](CC(C)C)C(=O)N[C@@H](CCC(=O)O)C(=O)N1CCC[C@H]1C(=O)N3)NC(=O)[C@H](CCCCN)NC(=O)CNC(=O)[C@H](CC(N)=O)NC(=O)[C@H](CCSC)NC2=O [F25R] (H-GVIINVKCKISRQCLEPCKKAGMRRGKCMNGKCHCTPK-OH; disulfide 8-28, 14-33, 18-35) | 31 | 25 | 
CC[C@H](C)[C@@H]1NC(=O)[C@H](CCCCN)NC(=O)[C@@H](NC(=O)[C@H](CCCCN)NC(=O)[C@@H](NC(=O)[C@H](CC(N)=O)NC(=O)[C@@H](NC(=O)[C@@H](NC(=O)[C@@H](NC(=O)CN)C(C)C)[C@@H](C)CC)[C@@H](C)CC)C(C)C)CSSC[C@@H]2NC(=O)[C@H](CCCCN)NC(=O)CNC(=O)[C@H](Cc3ccccc3)NC(=O)[C@H](CCCNC(=N)N)NC(=O)[C@H](CCSC)NC(=O)CNC(=O)[C@H](C)NC(=O)[C@H](CCCCN)NC(=O)[C@H](CCCCN)NC(=O)[C@@H]3CSSC[C@@H](C(=O)N[C@H](C(=O)N4CCC[C@H]4C(=O)N[C@@H](CCCCN)C(=O)O)[C@@H](C)O)NC(=O)[C@H](Cc4c[nH]cn4)NC(=O)[C@H](CSSC[C@H](NC(=O)[C@H](CCC(N)=O)NC(=O)[C@H](CCCNC(=N)N)NC(=O)[C@H](CO)NC1=O)C(=O)N[C@@H](CC(C)C)C(=O)N[C@@H](CCC(=O)O)C(=O)N[C@@H](CCCNC(=N)N)C(=O)N3)NC(=O)[C@H](CCCCN)NC(=O)CNC(=O)[C@H](CC(N)=O)NC(=O)[C@H](CCSC)NC2=O [P17R] (H-GVIINVKCKISRQCLERCKKAGMRFGKCMNGKCHCTPK-OH; disulfide 8-28, 14-33, 18-35) | 0.355 | 0.202 | 
des1-7, E16K, K20D, des36-38 (CKISRQCLKPCKDAGMRFGKCMNGKCHC-NH2; ends and bridges not checked) |  |  | IC50 ([1]; read-out: WB/IFNg (IC50)): 8.34 nM; IC50 ([2]; read-out: WB/IL-2 (IC50)): 8.18 nM
CC[C@H](C)[C@@H]1NC(=O)[C@H](CCCCN)NC(=O)[C@@H](NC(=O)[C@H](CCCCN)NC(=O)[C@H](C)NC(=O)[C@H](CC(N)=O)NC(=O)[C@@H](NC(=O)[C@@H](NC(=O)[C@@H](NC(=O)CN)C(C)C)[C@@H](C)CC)[C@@H](C)CC)CSSC[C@@H]2NC(=O)[C@H](CCCCN)NC(=O)CNC(=O)[C@H](Cc3ccccc3)NC(=O)[C@H](CCCNC(=N)N)NC(=O)[C@H](CCSC)NC(=O)CNC(=O)[C@H](C)NC(=O)[C@H](CCCCN)NC(=O)[C@H](CCCCN)NC(=O)[C@@H]3CSSC[C@@H](C(=O)N[C@H](C(=O)N4CCC[C@H]4C(=O)N[C@@H](CCCCN)C(=O)O)[C@@H](C)O)NC(=O)[C@H](Cc4c[nH]cn4)NC(=O)[C@H](CSSC[C@H](NC(=O)[C@H](CCC(N)=O)NC(=O)[C@H](CCCNC(=N)N)NC(=O)[C@H](CO)NC1=O)C(=O)N[C@@H](CC(C)C)C(=O)N[C@@H](CCC(=O)O)C(=O)N1CCC[C@H]1C(=O)N3)NC(=O)[C@H](CCCCN)NC(=O)CNC(=O)[C@H](CC(N)=O)NC(=O)[C@H](CCSC)NC2=O [V6A] (H-GVIINAKCKISRQCLEPCKKAGMRFGKCMNGKCHCTPK-OH; disulfide 8-28, 14-33, 18-35) | 0.0805 | 0.0733 | 
E16K, K20D (GVIINVKCKISRQCLKPCKDAGMRFGKCMNGKCHCTPK; Definition of Artificial Sequence: Synthetic peptide) |  |  | IC50 ([1]; read-out: WB/IFNg (IC50)): 1.32 nM; IC50 ([2]; read-out: WB/IL-2 (IC50)): 1.58 nM
GVIINVKCKISAQCLEPCKKAGMRFGKCMNGKCHCTPK [Ala-12 (SEQ ID No: 1410)] |  |  | IC50 ([1]; read-out: Average IC50 IFNg): 0.155 nM; IC50 ([2]; read-out: Average IC50 IL-2): 0.123 nM
CC[C@H](C)[C@@H]1NC(=O)[C@H](CCCCN)NC(=O)[C@@H](NC(=O)[C@H](CCCCN)NC(=O)[C@@H](NC(=O)[C@H](CC(N)=O)NC(=O)[C@@H](NC(=O)[C@@H](NC(=O)[C@@H](NC(=O)CN)C(C)C)[C@@H](C)CC)[C@@H](C)CC)C(C)C)CSSC[C@@H]2NC(=O)[C@H](CCCCN)NC(=O)[C@H](C)NC(=O)[C@H](Cc3ccccc3)NC(=O)[C@H](CCCNC(=N)N)NC(=O)[C@H](CCSC)NC(=O)CNC(=O)[C@H](C)NC(=O)[C@H](CCCCN)NC(=O)[C@H](CCCCN)NC(=O)[C@@H]3CSSC[C@@H](C(=O)N[C@H](C(=O)N4CCC[C@H]4C(=O)N[C@@H](CCCCN)C(=O)O)[C@@H](C)O)NC(=O)[C@H](Cc4c[nH]cn4)NC(=O)[C@H](CSSC[C@H](NC(=O)[C@H](CCC(N)=O)NC(=O)[C@H](CCCNC(=N)N)NC(=O)[C@H](CO)NC1=O)C(=O)N[C@@H](CC(C)C)C(=O)N[C@@H](CCC(=O)O)C(=O)N1CCC[C@H]1C(=O)N3)NC(=O)[C@H](CCCCN)NC(=O)CNC(=O)[C@H](CC(N)=O)NC(=O)[C@H](CCSC)NC2=O [G26A] (H-GVIINVKCKISRQCLEPCKKAGMRFAKCMNGKCHCTPK-OH; disulfide 8-28, 14-33, 18-35) | 10.7 | 12.1 | 
GVIINVKCKISRQCLEPCKKAGMRAGKCMNGKCHCTPK [Ala-25 (SEQ ID No: 1421)] |  |  | IC50 ([1]; read-out: Average IC50 IFNg): 3.08 nM; IC50 ([2]; read-out: Average IC50 IL-2): 3.08 nM
des1, V2G, R12A, E16K, K19R, K20D, H34A (GIINVKCKISAQCLKPCRDAGMRFGKCMNGKCACTPK) |  |  | IC50 ([1]; read-out: WB/IFNg (IC50)): 2.24 nM; IC50 ([2]; read-out: WB/IL-2 (IC50)): 1.5 nM
GVIINVKCKISRQCAEPCKKAGMRFGKCMNGKCHCTPK [Ala-15 (SEQ ID No: 1412)] |  |  | IC50 ([1]; read-out: Average IC50 IFNg): 0.107 nM; IC50 ([2]; read-out: Average IC50 IL-2): 0.107 nM
CC[C@H](C)[C@@H]1NC(=O)[C@H](CCCCN)NC(=O)[C@@H](NC(=O)[C@H](CCCCN)NC(=O)[C@@H](NC(=O)[C@H](CC(N)=O)NC(=O)[C@@H](NC(=O)[C@H](CCCNC(=N)N)NC(=O)[C@@H](NC(=O)CN)C(C)C)[C@@H](C)CC)C(C)C)CSSC[C@@H]2NC(=O)[C@H](CCCCN)NC(=O)CNC(=O)[C@H](Cc3ccccc3)NC(=O)[C@H](CCCNC(=N)N)NC(=O)[C@H](CCSC)NC(=O)CNC(=O)[C@H](C)NC(=O)[C@H](CCCCN)NC(=O)[C@H](CCCCN)NC(=O)[C@@H]3CSSC[C@@H](C(=O)N[C@H](C(=O)N4CCC[C@H]4C(=O)N[C@@H](CCCCN)C(=O)O)[C@@H](C)O)NC(=O)[C@H](Cc4c[nH]cn4)NC(=O)[C@H](CSSC[C@H](NC(=O)[C@H](CCC(N)=O)NC(=O)[C@H](CCCNC(=N)N)NC(=O)[C@H](CO)NC1=O)C(=O)N[C@@H](CC(C)C)C(=O)N[C@@H](CCC(=O)O)C(=O)N1CCC[C@H]1C(=O)N3)NC(=O)[C@H](CCCCN)NC(=O)CNC(=O)[C@H](CC(N)=O)NC(=O)[C@H](CCSC)NC2=O [I3R] (H-GVRINVKCKISRQCLEPCKKAGMRFGKCMNGKCHCTPK-OH; disulfide 8-28, 14-33, 18-35) | 0.18 | 0.148 | 
CC[C@H](C)[C@@H]1NC(=O)[C@H](CCCCN)NC(=O)[C@@H](NC(=O)[C@H](CCCCN)NC(=O)[C@@H](NC(=O)[C@H](CC(N)=O)NC(=O)[C@@H](NC(=O)[C@@H](NC(=O)[C@@H](NC(=O)CN)C(C)C)[C@@H](C)CC)[C@@H](C)CC)C(C)C)CSSC[C@@H]2NC(=O)[C@H](CCCCN)NC(=O)CNC(=O)[C@H](Cc3ccccc3)NC(=O)[C@H](CCCNC(=N)N)NC(=O)[C@H](CCSC)NC(=O)CNC(=O)[C@H](C)NC(=O)[C@H](CCCCN)NC(=O)[C@H](CCCCN)NC(=O)[C@@H]3CSSC[C@@H](C(=O)N[C@H](C(=O)N4CCC[C@H]4C(=O)N[C@@H](CCCCN)C(=O)O)[C@@H](C)O)NC(=O)[C@H](Cc4c[nH]cn4)NC(=O)[C@H](CSSC[C@H](NC(=O)[C@H](CCC(N)=O)NC(=O)[C@H](CCCNC(=N)N)NC(=O)[C@H](CO)NC1=O)C(=O)N[C@@H](CC(C)C)C(=O)N[C@@H](CCC(=O)O)C(=O)N1CCC[C@H]1C(=O)N3)NC(=O)[C@H](CCCCN)NC(=O)[C@H](Cc1cccc3ccccc13)NC(=O)[C@H](CC(N)=O)NC(=O)[C@H](CCSC)NC2=O [G31Nal] (H-GVIINVKCKISRQCLEPCKKAGMRFGKCMN[1Nal]KCHCTPK-OH; disulfide 8-28, 14-33, 18-35) | 0.467 | 0.331 | 
CC[C@H](C)[C@@H]1NC(=O)[C@H](CCCCN)NC(=O)[C@@H](NC(=O)[C@H](CCCCN)NC(=O)[C@@H](NC(=O)[C@H](CC(N)=O)NC(=O)[C@@H](NC(=O)[C@@H](NC(=O)[C@@H](NC(=O)CN)C(C)C)[C@@H](C)CC)[C@@H](C)CC)C(C)C)CSSC[C@@H]2NC(=O)[C@H](CCCCN)NC(=O)CNC(=O)[C@H](Cc3ccccc3)NC(=O)[C@H](CCCNC(=N)N)NC(=O)[C@H](CCSC)NC(=O)CNC(=O)[C@H](C)NC(=O)[C@H](CCCCN)NC(=O)[C@H](CCCCN)NC(=O)[C@@H]3CSSC[C@@H](C(=O)N[C@H](C(=O)N4CCC[C@H]4C(=O)N[C@@H](CCCCN)C(=O)O)[C@@H](C)O)NC(=O)[C@H](Cc4c[nH]cn4)NC(=O)[C@H](CSSC[C@H](NC(=O)[C@H](CCC(N)=O)NC(=O)[C@H](CCCNC(=N)N)NC(=O)[C@H](CO)NC1=O)C(=O)N[C@@H](CC(C)C)C(=O)N[C@@H](CCC(=O)O)C(=O)N[C@@H](CCC(=O)O)C(=O)N3)NC(=O)[C@H](CCCCN)NC(=O)CNC(=O)[C@H](CC(N)=O)NC(=O)[C@H](CCSC)NC2=O [P17E] (H-GVIINVKCKISRQCLEECKKAGMRFGKCMNGKCHCTPK-OH; disulfide 8-28, 14-33, 18-35) | 0.947 | 0.52 | 
